Where two headings read alike, the source gives them in different places.
What was measured:
cells = assay: Cellular activities in microculture tetrazolium (MTT) tests; assay type: cell-based
Protocol: The cellular activities were tested according to method as described in Alley M.C. et al, Cancer Res. 1988; 48(3):589-601. The principle of the method resides in that live cells can reduce MTT., i.e., 3-[4,5-dimethylthiazol-2-yl]-2,5-diphenyltetrazolium bromide)(tetrazolium salt) to formazan crystal through the dehydrogenase metabolism in Mitochondria. The crystal was dissolved in propanol and OD values were determined at 570 nm. The OD values can indicate the numbers of the live cells. The growth conditions of the cells were observed firstly. The cells were diluted to 2x10^4 cells/ml. 100µl sample taken by micropipet was placed in a 96-well plate. The plate was cultured for 24 hours as 37°C and 100µl of the compounds to be tested, which were prepared in medium, were added in each well. […] After culture for 4 hours, supernatant liquid was absorbed and 100 µl DMSO and 10µl /well was added. Each well was homogeneously mixed. The absorbance was determined at 570 nm.

[1] = system: Peripheral Blood Mononuclear Cells (PBMC); settings: for The numbers of dead cells in 400 cells' count / % viability: 48 hours; for The numbers of dead cells in 400 cells' count: control 9 dead cells; for % viability: viable cells versus control (391);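 on all read-outs here: trypan blue dye exclusion, cells stained and counted from quadruplicate dishes, DMSO vehicle kept under 0.5%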
Protocol: Viability of the cells was assayed by the trypan blue dye exclusion method. […] The concentration of DMSO was adjusted to be less than 0.5%. Cells from quadruplicated dishes were washed once with Hank's Balanced Salt Solution (HBSS). According to the process, the floating dead cells will be separated from the live monolayer cells. Then the cells were stained with trypan blue and counted. The total number of viable cells in the control group was considered as 100% viability and the agent-treated cells were compared with the control group for the determination of % viability. The % viability of agent-treated cells was calculated from the total number of viable cells in the control group and in the agent-treated group.

[2] = system: various HIV isolates (NL-43, JRCSF or 89.6); assay: P24 quantification, summary statements over all isolates; assay type: cell-based, HIV-1
Protocol: (§1) PBMCs were treated with various concentrations of CAPE, MC and PEDMC provided in Example 2 and simultaneously infected with […] and macrophage and T cells dual tropic (89.6) HIV-1 isolates. The next day, the added compounds were removed by washing methods or maintained at the same concentration. Samples were divided into two groups and the upernatants of the culture medium were collected at the 3 and 7 days after infection, respectively. The use of P24 EIA Reagent Kit of Abbott Laboratory compares the concentrations of viral P24 antigen with or without the compounds tested.

T cells-tropic (JRCSF) = assay: P24 quantification (P24 EIA) in infected PBMCs, JRCSF; assay type: cell-based, HIV-1; settings: PBMC; for concentrations of the viral P24 antigen, JRCSF(+): (+) original concentration of compound maintained after washing; for concentrations of the viral P24 antigen, JRCSF(-): (-) compound removed after washing
Protocol: as §1

[3] = system: macrophage-tropic (NL-43); assay: P24 quantification (P24 EIA) in infected PBMCs, NL-43; assay type: cell-based, HIV-1; settings: PBMC; for concentrations of the viral P24 antigen, NL43(+): (+) original concentration of compound maintained after washing; for concentrations of the viral P24 antigen, NL43(-): (-) compound removed after washing
Protocol: as §1

[4] = system: macrophage and T cells dual tropic (89.6); assay: P24 quantification (P24 EIA) in infected PBMCs, 89.6; assay type: cell-based, HIV-1; settings: PBMC; for concentrations of the viral P24 antigen, 89.6(+): (+) original concentration of compound maintained after washing; for concentrations of the viral P24 antigen, 89.6(-): (-) compound removed after washing
Protocol: as §1

SMILES: O=C(/C=C/c1ccc(O)c(O)c1)OCCc1ccccc1 [CAPE, caffeic acid phenethyl ester]
- MTT 24h, cellular activities (cells; 0.1 µM): 97.49 relative percentage
- MTT 48h, cellular activities (cells; 0.1 µM): 87.49 relative percentage
- MTT 24h, cellular activities (cells; 0.5 µM): 104.67 relative percentage
- MTT 48h, cellular activities (cells; 0.5 µM): 97.54 relative percentage
- MTT 24h, cellular activities (cells; 1 µM): 109.25 relative percentage
- MTT 48h, cellular activities (cells; 1 µM): 104.18 relative percentage
- MTT 24h, cellular activities (cells; 5 µM): 102.41 relative percentage
- MTT 48h, cellular activities (cells; 5 µM): 99.74 relative percentage
- MTT 24h, cellular activities (cells; 10 µM): 93.07 relative percentage
- MTT 48h, cellular activities (cells; 10 µM): 94.76 relative percentage
- MTT 24h, cellular activities (cells; 25 µM): 98.65 relative percentage
- MTT 48h, cellular activities (cells; 25 µM): 96.92 relative percentage
- MTT 24h, cellular activities (cells; 50 µM): 95.49 relative percentage
- MTT 48h, cellular activities (cells; 50 µM): 96.42 relative percentage
- MTT 24h, cellular activities (cells; 100 µM): 96.15 relative percentage
- MTT 48h, cellular activities (cells; 100 µM): 94.02 relative percentage
- MTT 24h, cellular activities (cells; 200 µM): 106.8 relative percentage
- MTT 48h, cellular activities (cells; 200 µM): 98.6 relative percentage
- MTT 24h, cellular activities (cells; 400 µM): 108.62 relative percentage
- MTT 48h, cellular activities (cells; 400 µM): 98.9 relative percentage
- cellular activities in MTT tests (result in words) (cells; Figures 1 and 2, 24 and 48 hours): no substantial effects
- The numbers of dead cells in 400 cells' count ([1]; 0.1 µM): 11
- % viability ([1]; 0.1 µM): 389/391 (99.5%)
- The numbers of dead cells in 400 cells' count ([1]; 0.5 µM): 9
- % viability ([1]; 0.5 µM): 391/391 (100%)
- The numbers of dead cells in 400 cells' count ([1]; 1 µM): 7
- % viability ([1]; 1 µM): 393/391 (100.5%)
- The numbers of dead cells in 400 cells' count ([1]; 5 µM): 10
- % viability ([1]; 5 µM): 390/391 (99.7%)
- The numbers of dead cells in 400 cells' count ([1]; 10 µM): 10
- % viability ([1]; 10 µM): 390/391 (99.7%)
- The numbers of dead cells in 400 cells' count ([1]; 25 µM): 5
- % viability ([1]; 25 µM): 395/391 (101%)
- The numbers of dead cells in 400 cells' count ([1]; 50 µM): 12
- % viability ([1]; 50 µM): 388/391 (99.2%)
- The numbers of dead cells in 400 cells' count ([1]; 100 µM): 11
- % viability ([1]; 100 µM): 389/391 (99.5%)
- The numbers of dead cells in 400 cells' count ([1]; 200 µM): 7
- % viability ([1]; 200 µM): 393/391 (100.5%)
- The numbers of dead cells in 400 cells' count ([1]; 400 µM): 8
- % viability ([1]; 400 µM): 392/391 (100.3%)
- viabilities of PBMC under high-dose versus low-dose treatments (result in words) ([1]; high dose up to 400 µM compared with 0.1-10 µM): no substantial differences
- viral replications (result in words) ([2]; Figures 3-5, PBMC infected with NL-43, JRCSF or 89.6): significantly inhibited viral replications
- inhibit viral replication ([2]; at the concentration of 100 µM or less, various HIV isolates): 100%
- concentrations of the viral P24 antigen, JRCSF(+) (T cells-tropic (JRCSF); 0.1 µM): 1000 unit
- concentrations of the viral P24 antigen, JRCSF(-) (T cells-tropic (JRCSF); 0.1 µM): 1000 unit
- concentrations of the viral P24 antigen, JRCSF(+) (T cells-tropic (JRCSF); 0.5 µM): 1000 unit
- concentrations of the viral P24 antigen, JRCSF(-) (T cells-tropic (JRCSF); 0.5 µM): 1000 unit
- concentrations of the viral P24 antigen, JRCSF(+) (T cells-tropic (JRCSF); 1 µM): 1000 unit
- concentrations of the viral P24 antigen, JRCSF(-) (T cells-tropic (JRCSF); 1 µM): 1000 unit
- concentrations of the viral P24 antigen, JRCSF(+) (T cells-tropic (JRCSF); 5 µM): 965.62 unit
- concentrations of the viral P24 antigen, JRCSF(-) (T cells-tropic (JRCSF); 5 µM): 1000 unit
- concentrations of the viral P24 antigen, JRCSF(+) (T cells-tropic (JRCSF); 10 µM): 642.72 unit
- concentrations of the viral P24 antigen, JRCSF(-) (T cells-tropic (JRCSF); 10 µM): 34.42 unit
- concentrations of the viral P24 antigen, JRCSF(+) (T cells-tropic (JRCSF); 25 µM): 0 unit
- concentrations of the viral P24 antigen, JRCSF(-) (T cells-tropic (JRCSF); 25 µM): 0 unit
- concentrations of the viral P24 antigen, JRCSF(+) (T cells-tropic (JRCSF); 50 µM): 0 unit
- concentrations of the viral P24 antigen, JRCSF(-) (T cells-tropic (JRCSF); 50 µM): 0 unit
- concentrations of the viral P24 antigen, JRCSF(+) (T cells-tropic (JRCSF); 100 µM): 0 unit
- concentrations of the viral P24 antigen, JRCSF(-) (T cells-tropic (JRCSF); 100 µM): 0 unit
- concentrations of the viral P24 antigen, JRCSF(+) (T cells-tropic (JRCSF); 200 µM): 0 unit
- concentrations of the viral P24 antigen, JRCSF(-) (T cells-tropic (JRCSF); 200 µM): 0 unit
- concentrations of the viral P24 antigen, JRCSF(+) (T cells-tropic (JRCSF); 400 µM): 0 unit
- concentrations of the viral P24 antigen, JRCSF(-) (T cells-tropic (JRCSF); 400 µM): 0 unit
- concentrations of the viral P24 antigen, NL43(+) ([3]; 0.1 µM): 1000 unit
- concentrations of the viral P24 antigen, NL43(-) ([3]; 0.1 µM): 1000 unit
- concentrations of the viral P24 antigen, NL43(+) ([3]; 0.5 µM): 1000 unit
- concentrations of the viral P24 antigen, NL43(-) ([3]; 0.5 µM): 1000 unit
- concentrations of the viral P24 antigen, NL43(+) ([3]; 1 µM): 1000 unit
- concentrations of the viral P24 antigen, NL43(-) ([3]; 1 µM): 1000 unit
- concentrations of the viral P24 antigen, NL43(+) ([3]; 5 µM): 1000 unit
- concentrations of the viral P24 antigen, NL43(-) ([3]; 5 µM): 1000 unit
- concentrations of the viral P24 antigen, NL43(+) ([3]; 10 µM): 990.64 unit
- concentrations of the viral P24 antigen, NL43(-) ([3]; 10 µM): 1000 unit
- concentrations of the viral P24 antigen, NL43(+) ([3]; 25 µM): 975.64 unit
- concentrations of the viral P24 antigen, NL43(-) ([3]; 25 µM): 988.28 unit
- concentrations of the viral P24 antigen, NL43(+) ([3]; 50 µM): 166.12 unit
- concentrations of the viral P24 antigen, NL43(-) ([3]; 50 µM): 865.44 unit
- concentrations of the viral P24 antigen, NL43(+) ([3]; 100 µM): 0 unit
- concentrations of the viral P24 antigen, NL43(-) ([3]; 100 µM): 62.26 unit
- concentrations of the viral P24 antigen, NL43(+) ([3]; 200 µM): 0 unit
- concentrations of the viral P24 antigen, NL43(-) ([3]; 200 µM): 0 unit
- concentrations of the viral P24 antigen, NL43(+) ([3]; 400 µM): 0 unit
- concentrations of the viral P24 antigen, NL43(-) ([3]; 400 µM): 0 unit
- concentrations of the viral P24 antigen, 89.6(+) ([4]; 0.1 µM): 1000 unit
- concentrations of the viral P24 antigen, 89.6(-) ([4]; 0.1 µM): 1000 unit
- concentrations of the viral P24 antigen, 89.6(+) ([4]; 0.5 µM): 899.22 unit
- concentrations of the viral P24 antigen, 89.6(-) ([4]; 0.5 µM): 949.75 unit
- concentrations of the viral P24 antigen, 89.6(+) ([4]; 1 µM): 643.71 unit
- concentrations of the viral P24 antigen, 89.6(-) ([4]; 1 µM): 1000 unit
- concentrations of the viral P24 antigen, 89.6(+) ([4]; 5 µM): 243.87 unit
- concentrations of the viral P24 antigen, 89.6(-) ([4]; 5 µM): 280.51 unit
- concentrations of the viral P24 antigen, 89.6(+) ([4]; 10 µM): 230.32 unit
- concentrations of the viral P24 antigen, 89.6(-) ([4]; 10 µM): 255.21 unit
- concentrations of the viral P24 antigen, 89.6(+) ([4]; 25 µM): 0 unit
- concentrations of the viral P24 antigen, 89.6(-) ([4]; 25 µM): 182.44 unit
- concentrations of the viral P24 antigen, 89.6(+) ([4]; 50 µM): 0 unit
- concentrations of the viral P24 antigen, 89.6(-) ([4]; 50 µM): 243.53 unit
- concentrations of the viral P24 antigen, 89.6(+) ([4]; 100 µM): 0 unit
- concentrations of the viral P24 antigen, 89.6(-) ([4]; 100 µM): 113.2 unit
- concentrations of the viral P24 antigen, 89.6(+) ([4]; 200 µM): 0 unit
- concentrations of the viral P24 antigen, 89.6(-) ([4]; 200 µM): 0 unit
- concentrations of the viral P24 antigen, 89.6(+) ([4]; 400 µM): 0 unit
- concentrations of the viral P24 antigen, 89.6(-) ([4]; 400 µM): 0 unit
